The source of these data is patent US20140045695A1, “Continuous Fiber Layer Comprising an Active Substance on the Basis of Bio-polymers, the Use Thereof, and Method for the Production Thereof” (priority 2008, published 2014).

≈ marks a conversion by molar mass, not a printed value. Read-outs that look alike come from different tables or passages of the source. A value given as a limit tells only on which side of the number the result lay.

The nature of data set [1]: Crystallinity studies by x-ray diffraction (WAXS in transmission). The data set is classed as physicochemical. An excerpt: FIG. 2 crystallinity studies (WAXS in transmission) of the GGE active ingredient in the C16 spider silk protein formulations obtained by electrospinning compared to the pure substances (GGE or C16 powder);
FIG. 6 crystallinity studies (WAXS in transmission) of the clotrimazole active ingredient in the C16 spider silk protein formulations obtained by electrospinning compared to pure clotrimazole;
FIG. 9 crystallinity studies (WAXS in transmission) of the metazachlor active ingredient in the C16 spider silk protein formulations obtained by electrospinning compared to pure metazachlor;
FIG. 12 crystallinity studies (WAXS in transmission) of the Uvinul A+ active ingredient in the C16 spider silk protein formulations obtained by electrospinning compared to Uvinul A+ pure substance;
FIG. 16 crystallinity studies (WAXS in transmission) of the Uvinul A+ active ingredient in the R16 protein nonwoven (A) and S16 protein nonwoven (B) obtained by electrospinning compared to pure Uvinul A+;

The conditions of data set [2]: cited from earlier work.

For the compound `Cc1cccc(C)c1N(Cn1cccn1)C(=O)CCl` [metazachlor], in data set [1], the “crystallinity of the active ingredient in x-ray diffraction” value is given as “significant crystalline proportions”.

Turning to `NC(=O)N1c2ccccc2C=Cc2ccccc21` [Carbamazipine], the Solubility in water in data set [2] (RT) is 945.1 µg/mL (≈ 4000 µM). `Clc1ccccc1C(c1ccccc1)(c1ccccc1)n1ccnc1` [Clotrimazole]: the Solubility in water in data set [2] (25° C.) is less than 10 µg/mL.
